Data on 3 compounds can be found in article PMC10947119 (Angewandte Chemie (International Ed. in English), 2023).

The target in assay [1] is T1, MtbPPAT (Mycobacterium tuberculosis, UniProt P9WPA5). As to conditions: read-out: KD, previous estimates; ITC, near-identical conditions; cited from earlier work.
Assay [2] concerns PPAT of Mycobacterium abscessus. As to conditions: cited from earlier work.
Assay [3] addresses T1, MtbPPAT. Description: MtbPPAT activity assay. The class given is biochemical. The note with it: 1 mM compound, ATP 120, 240, 500 µM.
The subject of a further assay is Mycobacterium abscessus. As to conditions: cited from earlier work.
A further assay relates to wildtype Mtb H37RvMA. Format: cell-based, Mycobacterium tuberculosis.
In assay [4] the target is T1, MtbPPAT. The class given is binding. As to conditions: for Affinity increase (KD lower) relative to parent indole fragment 12: KD by ITC vs KD of 12.

T1 sequence (P9WPA5 whole entry, looked up): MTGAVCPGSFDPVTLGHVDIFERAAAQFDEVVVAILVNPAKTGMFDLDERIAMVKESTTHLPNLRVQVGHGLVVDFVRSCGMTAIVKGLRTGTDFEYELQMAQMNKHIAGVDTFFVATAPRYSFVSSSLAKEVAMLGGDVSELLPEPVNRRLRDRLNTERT

With `CC(C)(COP(=O)(O)OP(=O)(O)OC[C@H]1O[C@@H](n2cnc3c(N)ncnc32)[C@H](O)[C@@H]1OP(=O)(O)O)[C@@H](O)C(=O)NCCC(=O)NCCS` [CoA, coenzyme A], the Kd at MtbPPAT [1] is not below 13 µM.
Take `O=C(O)c1cnn(-c2ccccc2)c1OCCCc1c[nH]c2ccccc12` [compound 20]: in assay [2], the “Affinity for M. abscessus PPAT” value is “low‐micromolar affinity”. On MtbPPAT [3], the “Mode of inhibition of MtbPPAT activity” value is “ATP‐competitive manner”. The “Whole-cell activity against M. abscessus” value with Mycobacterium abscessus is “lacked whole‐cell activity”. In addition, the “Effect of ATc on potency” value in the assay on wildtype Mtb H37RvMA was “no effect”. Moreover, at MtbPPAT [4], the “Affinity increase (KD lower) relative to parent indole fragment 12” value is “≈ 65 fold”. Also, on MtbPPAT [4] (from direct ITC KD, Condition 1 (20 mM NaCl)), the “Ligand efficiency LE” value worked out at 0.24 kcal mol^−1 NHA^−1.
With `O=C(O)c1cnn(-c2ccccc2)c1OCCc1c[nH]c2ccccc12` [compound 19], the “Affinity increase (KD lower) relative to parent indole fragment 12” value at MtbPPAT [4] was “≈ 25 fold”.
